Experimental data: PubChem BioAssay AID256 (DTP/NCI, 2004)
Values joined by “and” are separate entries in the source; they are usually repeats but may differ in a detail not shown here. Identical values can stand only once. Toxic doses and inconclusive results are not listed. The calls were made as follows: active = survival T/C of 150% or more; inactive = T/C below 125% in these data.

Tested on: CD2F1 mice, L1210 leukemia ip, survival T/C
Experiment: NCI In Vivo Anticancer Drug Screen. Data for tumor model L1210 Leukemia (intraperitoneal) in CD2F1 (CDF1) mice
Details: higher = longer survival
Summary of the method: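 Read-out first: treated-group measurement over vehicle-control measurement, expressed as a ratio. Animals bore a transplanted tumor line and were dosed with compound or vehicle.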

[1] = endpoint: mean survival time, dose: 25.0 mg/kg/injection, schedule: Q04DX002 (ip), vehicle: saline with Tween-80
[2] = endpoint: mean survival time, dose: 100.0 mg/kg/injection, schedule: Q04DX003 (ip), vehicle: saline with Tween-80
[3] = endpoint: mean survival time, dose: 200.0 mg/kg/injection, schedule: Q04DX003 (ip), vehicle: saline with Tween-80
[4] = endpoint: mean survival time, dose: 400.0 mg/kg/injection, schedule: Q04DX003 (ip), vehicle: saline with Tween-80
[5] = endpoint: mean survival time, dose: 100.0 mg/kg/injection, schedule: Q04DX002 (ip), vehicle: saline with Tween-80
[6] = endpoint: mean survival time, dose: 200.0 mg/kg/injection, schedule: Q04DX002 (ip), vehicle: saline with Tween-80
[7] = endpoint: mean survival time, dose: 100.0 mg/kg/injection, schedule: Q01DX009 (ip), vehicle: saline
[8] = endpoint: mean survival time, dose: 100.0 mg/kg/injection, schedule: Q04DX003 (ip), vehicle: saline
[9] = endpoint: mean survival time, dose: 200.0 mg/kg/injection, schedule: Q01DX009 (ip), vehicle: saline
[10] = endpoint: mean survival time, dose: 200.0 mg/kg/injection, schedule: Q04DX003 (ip), vehicle: saline
[11] = endpoint: mean survival time, dose: 100.0 mg/kg/injection, schedule: Q01DX009 (ip), vehicle: Klucel (hydroxypropylcellulose) (HPC)
[12] = endpoint: mean survival time, dose: 200.0 mg/kg/injection, schedule: Q01DX009 (ip), vehicle: Klucel (hydroxypropylcellulose) (HPC)
[13] = endpoint: mean survival time, dose: 400.0 mg/kg/injection, schedule: Q01DX009 (ip), vehicle: Klucel (hydroxypropylcellulose) (HPC)
[14] = endpoint: mean survival time, dose: 400.0 mg/kg/injection, schedule: Q04DX002 (ip), vehicle: saline with Tween-80
[15] = endpoint: mean survival time, dose: 100.0 mg/kg/injection, schedule: Q01DX009 (ip), vehicle: saline with Tween-80
[16] = endpoint: mean survival time, dose: 200.0 mg/kg/injection, schedule: Q01DX009 (ip), vehicle: saline with Tween-80
[17] = endpoint: mean survival time, dose: 400.0 mg/kg/injection, schedule: Q01DX009 (ip), vehicle: saline with Tween-80
[18] = endpoint: mean survival time, dose: 100.0 mg/kg/injection, schedule: Q01DX001 (ip), vehicle: saline with Tween-80
[19] = endpoint: mean survival time, dose: 200.0 mg/kg/injection, schedule: Q01DX001 (ip), vehicle: saline with Tween-80
[20] = endpoint: mean survival time, dose: 400.0 mg/kg/injection, schedule: Q01DX001 (ip), vehicle: saline with Tween-80

Measured: T/C

CCCCCCC(C)OC(=O)CCCc1ccc(N(CCCl)CCCl)cc1 (stereo unspecified)
inactive: endpoint: mean survival time, dose: 50.0 mg/kg/injection, schedule: Q01DX009 (ip), vehicle: acetone 104 % of control | endpoint: mean survival time, dose: 100.0 mg/kg/injection, schedule: Q01DX009 (ip), vehicle: acetone 104 % of control | endpoint: mean survival time, dose: 200.0 mg/kg/injection, schedule: Q01DX009 (ip), vehicle: acetone 104 % of control

CCCC(P(=O)(c1ccccc1)c1ccccc1)[P+](CC)(c1ccccc1)c1ccccc1 (stereo unspecified)
inactive: endpoint: mean survival time, dose: 6.25 mg/kg/injection, schedule: Q04DX002 (ip), vehicle: saline with Tween-80 100 % of control | endpoint: mean survival time, dose: 12.5 mg/kg/injection, schedule: Q04DX002 (ip), vehicle: saline with Tween-80 96 % of control | [1] 92 % of control

Cc1ccc(NC(=O)Nc2ccccc2C(F)(F)F)cc1NC(=O)Nc1ccccc1C(F)(F)F
inactive: [2] 96 % of control | [3] 98 % of control | [4] 104 % of control

C[N+](C)(C)C1CCCC1O (stereo unspecified)
inactive: [1] 98 % of control | endpoint: mean survival time, dose: 50.0 mg/kg/injection, schedule: Q04DX002 (ip), vehicle: saline with Tween-80 98 % of control | [5] 95 % of control | [6] 95 % of control

O=c1oc(-c2cccc([N+](=O)[O-])c2)nc2ccccc12
inactive: [2] 100 % of control | [3] 88 % of control

N#CN1CCOCC1
inactive: [7] 101 % of control | [8] 91 % of control | [9] 110 % of control | [10] 96 % of control

Cc1cc2c(C)c3cc(C)c(N)cc3nc2cc1N
inactive: endpoint: mean survival time, dose: 75.0 mg/kg/injection, schedule: Q01DX001 (ip), vehicle: saline 103 % of control

CC(=O)Cc1nc(N)nc(Nc2ccc(Cl)c(Cl)c2)n1
inactive: [7] 96 % of control | [9] 97 % of control | endpoint: mean survival time, dose: 400.0 mg/kg/injection, schedule: Q01DX009 (ip), vehicle: saline 111 % of control

CC(C)NC(=O)C1C2CCC(C2)C1C(=O)NC(C)C (stereo unspecified)
inactive: [8] 98 % of control | [10] 111 % of control | endpoint: mean survival time, dose: 400.0 mg/kg/injection, schedule: Q04DX003 (ip), vehicle: saline 98 % of control

CC(C)c1cc2cc(Br)ccc2o1
inactive: endpoint: mean survival time, dose: 100.0 mg/kg/injection, schedule: Q01DX001 (ip), vehicle: saline 103 % of control | endpoint: mean survival time, dose: 200.0 mg/kg/injection, schedule: Q01DX001 (ip), vehicle: saline 95 % of control

c1ccc(CCc2nc3ccccc3o2)cc1
inactive: [2] 98 % of control | [3] 102 % of control | [4] 93 % of control

Cc1cc(N(CCCl)CCCl)ccc1C=Nc1cccnc1
inactive: endpoint: mean survival time, dose: 50.0 mg/kg/injection, schedule: Q01DX009 (ip), vehicle: Klucel (hydroxypropylcellulose) (HPC) 101 % of control | [11] 106 % of control | [12] 110 % of control | [13] 112 % of control

CC1=C(C)C2(C)C(C)(O)C(C)(O)C12C (stereo unspecified)
inactive: endpoint: mean survival time, dose: 18.75 mg/kg/injection, schedule: Q01DX009 (ip), vehicle: saline with Tween-80 98 % of control | endpoint: mean survival time, dose: 37.5 mg/kg/injection, schedule: Q01DX009 (ip), vehicle: saline with Tween-80 93 % of control | endpoint: mean survival time, dose: 75.0 mg/kg/injection, schedule: Q01DX009 (ip), vehicle: saline with Tween-80 96 % of control

N#CCCn1c2ccccc2c2ccccc21
inactive: [2] 98 % of control | [3] 94 % of control | [4] 94 % of control

CC(=O)OCc1ccc(Cl)cc1
inactive: [2] 94 % of control | [3] 96 % of control | [4] 96 % of control

OCC1OC(n2cc(I)c3c2ncn2ccnc32)C(O)C1O (stereo unspecified)
inactive: endpoint: mean survival time, dose: 1.56 mg/kg/injection, schedule: Q01DX005 (ip), vehicle: water 92 % of control | endpoint: mean survival time, dose: 3.13 mg/kg/injection, schedule: Q01DX005 (ip), vehicle: water 92 % of control | endpoint: mean survival time, dose: 6.25 mg/kg/injection, schedule: Q01DX005 (ip), vehicle: water 97 % of control | endpoint: mean survival time, dose: 12.5 mg/kg/injection, schedule: Q01DX005 (ip), vehicle: water 104 % of control | endpoint: mean survival time, dose: 25.0 mg/kg/injection, schedule: Q01DX005 (ip), vehicle: water 100 % of control

COc1ccc(C2OC2C(=O)O)cc1OC (stereo unspecified)
inactive: [2] 98 % of control | [3] 86 % of control | [4] 96 % of control

Nc1nc(SCc2ccccc2)c2[nH]cnc2n1
active: endpoint: mean survival time, dose: 31.3 mg/kg/injection, schedule: Q01DX009 (ip), vehicle: saline 158 % of control and 183 % of control | endpoint: mean survival time, dose: 37.5 mg/kg/injection, schedule: Q03DX003 (ip), vehicle: saline 151 % of control | endpoint: mean survival time, dose: 37.5 mg/kg/injection, schedule: Q04DX003 (ip), vehicle: saline 164 % of control | endpoint: mean survival time, dose: 62.5 mg/kg/injection, schedule: Q01DX009 (ip), vehicle: saline 180 % of control and 181 % of control | endpoint: mean survival time, dose: 75.0 mg/kg/injection, schedule: Q04DX003 (ip), vehicle: saline 160 % of control | endpoint: mean survival time, dose: 125.0 mg/kg/injection, schedule: Q01DX009 (ip), vehicle: saline 161 % of control | endpoint: mean survival time, dose: 150.0 mg/kg/injection, schedule: Q03DX003 (ip), vehicle: saline 150 % of control | endpoint: median survival time, dose: 31.3 mg/kg/injection, schedule: Q01DX009 (ip), vehicle: saline 150 % of control and 162 % of control | endpoint: median survival time, dose: 62.5 mg/kg/injection, schedule: Q01DX009 (ip), vehicle: saline 155 % of control and 156 % of control
inactive: endpoint: mean survival time, dose: 15.6 mg/kg/injection, schedule: Q01DX009 (ip), vehicle: saline 118 % of control | endpoint: mean survival time, dose: 150.0 mg/kg/injection, schedule: Q01DX007 (ip), vehicle: saline 107 % of control | endpoint: mean survival time, dose: 150.0 mg/kg/injection, schedule: Q01DX009 (ip), vehicle: saline 100 % of control | endpoint: median survival time, dose: 125.0 mg/kg/injection, schedule: Q01DX009 (ip), vehicle: saline 88 % of control and 112 % of control | endpoint: median survival time, dose: 250.0 mg/kg/injection, schedule: Q01DX009 (ip), vehicle: saline 87 % of control

O=Cc1ccc(OC(=O)Nc2cccc3ccccc23)cc1
inactive: [5] 91 % of control | [6] 98 % of control | [14] 87 % of control

CS/C(N)=N\C(=S)Nc1ccccc1
inactive: [15] 103 % of control | [16] 103 % of control | [17] 101 % of control

OCCN=Cc1cccs1
inactive: [15] 101 % of control | [16] 95 % of control | [17] 110 % of control

Nc1cc2c(nnn2C2OC(CO)C(O)C2O)c(=O)[nH]1 (stereo unspecified)
inactive: endpoint: mean survival time, dose: 12.5 mg/kg/injection, schedule: Q01DX005 (ip), vehicle: distilled water + Tween-80 98 % of control | endpoint: mean survival time, dose: 25.0 mg/kg/injection, schedule: Q01DX005 (ip), vehicle: distilled water + Tween-80 98 % of control | endpoint: mean survival time, dose: 50.0 mg/kg/injection, schedule: Q01DX005 (ip), vehicle: distilled water + Tween-80 102 % of control | endpoint: mean survival time, dose: 100.0 mg/kg/injection, schedule: Q01DX005 (ip), vehicle: distilled water + Tween-80 98 % of control | endpoint: mean survival time, dose: 200.0 mg/kg/injection, schedule: Q01DX005 (ip), vehicle: distilled water + Tween-80 88 % of control

CCN(CC)CCNc1ncnc(N)c1C(=C(C)C)c1ccc(Cl)cc1
inactive: endpoint: mean survival time, dose: 50.0 mg/kg/injection, schedule: Q01DX009 (ip), vehicle: saline with Tween-80 96 % of control | [18] 94 % of control | [15] 96 % of control | [19] 86 % of control | [16] 87 % of control

O=c1cc(Nc2cccc(Cl)c2Cl)[nH]c(=O)[nH]1
inactive: [18] 93 % of control and 97 % of control | [5] 118 % of control and 91 % of control | [19] 97 % of control and 98 % of control | [6] 90 % of control and 92 % of control | [20] 95 % of control and 97 % of control | [14] 91 % of control and 100 % of control

COc1ccc(F)c(NC(=O)/C=N/O)c1
inactive: [2] 102 % of control | [3] 102 % of control | [4] 100 % of control

CCc1c(Br)c(CC)c(Br)c(CC)c1Br
inactive: [2] 98 % of control | [3] 97 % of control | [4] 98 % of control

COCCOCCOc1cc(-c2c(OCCOCCOC)ccc3ccccc23)c2ccccc2c1
inactive: [18] 100 % of control | [19] 100 % of control | [20] 100 % of control

CC(C)(C)OC(=O)C(CC(=O)O)=C(c1ccccc1)c1ccccc1
inactive: [11] 102 % of control | endpoint: mean survival time, dose: 100.0 mg/kg/injection, schedule: Q04DX003 (ip), vehicle: Klucel (hydroxypropylcellulose) (HPC) 101 % of control | [12] 100 % of control | endpoint: mean survival time, dose: 200.0 mg/kg/injection, schedule: Q04DX003 (ip), vehicle: Klucel (hydroxypropylcellulose) (HPC) 103 % of control | [13] 104 % of control | endpoint: mean survival time, dose: 400.0 mg/kg/injection, schedule: Q04DX003 (ip), vehicle: Klucel (hydroxypropylcellulose) (HPC) 109 % of control
